Results on two molecules are retold here after patent US20180298024A1, “CORTISTATIN ANALOGS AND USES THEREOF” (President and Fellows of Harvard College, priority 2015, published 2018).

One assay addresses T1, Phosphodiesterase PDE3 (Homo sapiens, UniProt Q14432).
T1 construct: Eurofins Panlabs
The assay can be described thus: Panlab assay, Phosphodiesterase PDE3. To be noted: read-out: IC50, inhibition of Phosphodiesterase PDE3 activity. The assay is classed as biochemical. On the procedure:
Compounds A, B, C, and D were tested in Panlab assays to evaluate potential off-target activity using standard assay kits. Methods employed in these studies have been adapted from the scientific literature to maximize reliability and reproducibility.
IC50 values were determined by a non-linear, least squares regression analysis using MathIQ™ (ID Business Solutions Ltd., UK). […] Where presented, the Hill coefficient (nH), defining the slope of the competitive binding curve, was calculated using MathIQ™.

Another assay deals with T2, Adenosine Transporter (Cavia porcellus, UniProt H0V4R7).
T2 sequence (H0V4R7 1-461): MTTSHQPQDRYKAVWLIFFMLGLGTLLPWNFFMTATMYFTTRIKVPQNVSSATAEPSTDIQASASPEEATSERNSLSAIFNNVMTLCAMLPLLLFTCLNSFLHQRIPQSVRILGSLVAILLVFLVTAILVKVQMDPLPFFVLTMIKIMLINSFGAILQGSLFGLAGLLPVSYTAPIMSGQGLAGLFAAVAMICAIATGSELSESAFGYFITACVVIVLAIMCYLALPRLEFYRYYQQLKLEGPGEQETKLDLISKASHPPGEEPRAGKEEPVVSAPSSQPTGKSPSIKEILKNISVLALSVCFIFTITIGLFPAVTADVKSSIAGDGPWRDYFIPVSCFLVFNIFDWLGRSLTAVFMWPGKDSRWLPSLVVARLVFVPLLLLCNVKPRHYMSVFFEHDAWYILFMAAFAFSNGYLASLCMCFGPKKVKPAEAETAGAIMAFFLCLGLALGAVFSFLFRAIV
The assay can be described thus: Panlab assay, Adenosine Transporter. Format: binding. How it is done:
Compounds A, B, C, and D were tested in Panlab assays to evaluate potential off-target activity using standard assay kits. Methods employed in these studies have been adapted from the scientific literature to maximize reliability and reproducibility. Reference standards were run as an integral part of each assay to ensure the validity of the results obtained.
IC50 values were determined by a non-linear, least squares regression analysis using MathIQ™ (ID Business Solutions Ltd., UK). Where inhibition constants (Ki) are presented, the Ki values were calculated using the equation of Cheng and Prusoff (Cheng, Y., Prusoff, W. H., Biochem. Pharmacol. 22:3099-3108, 1973) using the observed IC50 of the tested compound, the concentration of radioligand employed in the assay, and the historical values for the KD of the ligand (obtained experimentally at Eurofins Panlabs, Inc.). Where presented, the Hill coefficient (nH), defining the slope of the competitive binding curve, was calculated using MathIQ™.

The target in the next assay is T3, CAMK2B (Homo sapiens, UniProt Q13554).
T3 construct: purchased ProQinase; host or cells: Sf9 insect cells or E. coli
The assay can be described thus: 33PanQinase radiometric kinase assay, CAMK2B. Format: biochemical. How it is done:
(§1) A radiometric protein kinase assay (33PanQinase Activity Assay) was used for measuring the kinase activity of the 320 protein kinases. All kinase assays were performed in 96-well FlashPlates™ from Perkin Elmer (Boston, Mass., USA) in a 50 μl reaction volume. The reaction cocktail was pipetted in 4 steps in the following order: • 1. 10 μl of non-radioactive ATP solution (in H2O) • 2. 25 μl of assay buffer/[γ-33P]-ATP mixture • 3. 5 μl of test sample in 10% DMSO • 4. 10 μl of enzyme/substrate mixture
(§2) All PKC assays (except the PKC-mu and the PKC-nu assay) additionally contained 1 mM CaCl2, 4 mM EDTA, 5 μg/ml phosphatidylserine and 1 μg/ml 1,2-dioleyl-glycerol.
The CAMKID, CAMK2A, CAMK2B, CAMK2D, CAMK4, CAMKK1, CAMKK2, DAPK2, EEF2K, MYLK, MYLK2 and MYLK3 assays additionally contained 1 μg/ml Calmodulin and 0.5 mM CaCl2). The PRKG1 and PRKG2 assays additionally contained 1 μM cGMP. The DNA-PK assay additionally contained 2.5 μg/ml DNA. The protein kinase reaction cocktails were incubated at 30° C. for 60 minutes. The reaction was stopped with 50 μl of 2% (v/v) H3PO4, plates were aspirated and washed two times with 200 μl 0.9% (w/v) NaCl. Incorporation of 33Pi (counting of “cpm”) was determined with a microplate scintillation counter (Microbeta, Wallac). All protein kinase assays were performed with a BeckmanCoulter Biomek 2000/SL robotic system.
All protein kinases provided by ProQinase were expressed in Sf9 insect cells or in E. coli as recombinant GST-fusion proteins or His-tagged proteins, either as full-length or enzymatically active fragments. All kinases were produced from human cDNAs and purified by either GSHaffinity chromatography or immobilized metal. Affinity tags were removed from a number of kinases during purification. […]
(§3) For each kinase, the median value of the cpm of three wells was defined as “low control” (n=3). This value reflects unspecific binding of radioactivity to the plate in the absence of a protein kinase but in the presence of the substrate. […] The residual activity (in %) for each compounds well was calculated by using the following formula: […]

The target in a further assay is T4, LTK (Homo sapiens, UniProt P29376).
T4 construct: purchased ProQinase; host or cells: Sf9 insect cells or E. coli
The assay can be described thus: 33PanQinase radiometric kinase assay, LTK. Format: biochemical. How it is done: as §1, §2
(§4) The CAMKID, CAMK2A, CAMK2B, CAMK2D, CAMK4, CAMKK1, CAMKK2, DAPK2, EEF2K, MYLK, MYLK2 and MYLK3 assays additionally contained 1 μg/ml Calmodulin and 0.5 mM CaCl2). The PRKG1 and PRKG2 assays additionally contained 1 μM cGMP. The DNA-PK assay additionally contained 2.5 μg/ml DNA. […] Incorporation of 33Pi (counting of “cpm”) was determined with a microplate scintillation counter (Microbeta, Wallac). […]
as §3

The target of the next assay is T5, ALK (Homo sapiens, UniProt Q9UM73).
T5 construct: purchased ProQinase; host or cells: Sf9 insect cells or E. coli
The assay can be described thus: 33PanQinase radiometric kinase assay, ALK. To be noted: in vitro, read-out: percent inhibition of ALK. The assay is classed as biochemical. How it is done:
as §1, §2, §4, §3

The subject of another assay is OCI-AML2. The assay can be described thus: Half-maximal growth inhibition (GI50), OCI-AML2. Format: cell-based. Conditions: Homo sapiens, 240 h, AML, M4, DNMT3A R635W, read-out: GI50 (nM), day 10. On the procedure:
(§5) Compounds A, B, C, D, and F were tested against various cell lines to probe their broad utility against cancer. Cortistatin A (CA) was also tested against the cell lines in a head to head fashion.

The next assay concerns K562. The assay can be described thus: Half-maximal growth inhibition (GI50), K562. Format: cell-based. To be noted: Homo sapiens, 240 h, CML, BCR-Abl, read-out: GI50 (nM), day 10. On the procedure: as §5

Several values for one entry are separate records, joined by “and”; a condition that tells them apart may be missing. Equal entries are not always repeated. A value given as a limit tells only on which side of the number the result lay.

T4 sequence (P29376 17-864): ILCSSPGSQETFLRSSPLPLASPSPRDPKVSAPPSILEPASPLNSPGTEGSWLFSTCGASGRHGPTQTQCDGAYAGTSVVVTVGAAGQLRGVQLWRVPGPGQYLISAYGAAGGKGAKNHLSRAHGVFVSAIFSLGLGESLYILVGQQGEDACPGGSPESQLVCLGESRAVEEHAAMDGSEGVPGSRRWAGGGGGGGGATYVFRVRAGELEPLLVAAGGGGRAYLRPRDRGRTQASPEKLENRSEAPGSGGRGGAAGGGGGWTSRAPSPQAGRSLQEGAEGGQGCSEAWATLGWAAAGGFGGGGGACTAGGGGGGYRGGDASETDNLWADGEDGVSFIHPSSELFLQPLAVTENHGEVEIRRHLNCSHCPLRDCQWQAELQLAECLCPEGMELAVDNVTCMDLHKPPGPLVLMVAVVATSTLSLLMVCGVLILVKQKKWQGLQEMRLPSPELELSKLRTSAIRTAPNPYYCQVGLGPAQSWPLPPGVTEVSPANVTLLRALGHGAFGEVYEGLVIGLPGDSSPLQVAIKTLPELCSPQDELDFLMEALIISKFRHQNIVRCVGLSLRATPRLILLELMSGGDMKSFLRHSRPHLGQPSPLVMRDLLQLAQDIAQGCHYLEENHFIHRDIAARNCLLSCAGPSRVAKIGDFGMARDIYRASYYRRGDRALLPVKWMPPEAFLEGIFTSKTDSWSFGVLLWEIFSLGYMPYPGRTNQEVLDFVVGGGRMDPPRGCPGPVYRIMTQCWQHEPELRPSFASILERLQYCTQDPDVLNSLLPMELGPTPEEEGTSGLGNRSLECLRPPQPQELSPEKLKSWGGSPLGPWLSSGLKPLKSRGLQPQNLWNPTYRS
T5 sequence (Q9UM73 19-1620): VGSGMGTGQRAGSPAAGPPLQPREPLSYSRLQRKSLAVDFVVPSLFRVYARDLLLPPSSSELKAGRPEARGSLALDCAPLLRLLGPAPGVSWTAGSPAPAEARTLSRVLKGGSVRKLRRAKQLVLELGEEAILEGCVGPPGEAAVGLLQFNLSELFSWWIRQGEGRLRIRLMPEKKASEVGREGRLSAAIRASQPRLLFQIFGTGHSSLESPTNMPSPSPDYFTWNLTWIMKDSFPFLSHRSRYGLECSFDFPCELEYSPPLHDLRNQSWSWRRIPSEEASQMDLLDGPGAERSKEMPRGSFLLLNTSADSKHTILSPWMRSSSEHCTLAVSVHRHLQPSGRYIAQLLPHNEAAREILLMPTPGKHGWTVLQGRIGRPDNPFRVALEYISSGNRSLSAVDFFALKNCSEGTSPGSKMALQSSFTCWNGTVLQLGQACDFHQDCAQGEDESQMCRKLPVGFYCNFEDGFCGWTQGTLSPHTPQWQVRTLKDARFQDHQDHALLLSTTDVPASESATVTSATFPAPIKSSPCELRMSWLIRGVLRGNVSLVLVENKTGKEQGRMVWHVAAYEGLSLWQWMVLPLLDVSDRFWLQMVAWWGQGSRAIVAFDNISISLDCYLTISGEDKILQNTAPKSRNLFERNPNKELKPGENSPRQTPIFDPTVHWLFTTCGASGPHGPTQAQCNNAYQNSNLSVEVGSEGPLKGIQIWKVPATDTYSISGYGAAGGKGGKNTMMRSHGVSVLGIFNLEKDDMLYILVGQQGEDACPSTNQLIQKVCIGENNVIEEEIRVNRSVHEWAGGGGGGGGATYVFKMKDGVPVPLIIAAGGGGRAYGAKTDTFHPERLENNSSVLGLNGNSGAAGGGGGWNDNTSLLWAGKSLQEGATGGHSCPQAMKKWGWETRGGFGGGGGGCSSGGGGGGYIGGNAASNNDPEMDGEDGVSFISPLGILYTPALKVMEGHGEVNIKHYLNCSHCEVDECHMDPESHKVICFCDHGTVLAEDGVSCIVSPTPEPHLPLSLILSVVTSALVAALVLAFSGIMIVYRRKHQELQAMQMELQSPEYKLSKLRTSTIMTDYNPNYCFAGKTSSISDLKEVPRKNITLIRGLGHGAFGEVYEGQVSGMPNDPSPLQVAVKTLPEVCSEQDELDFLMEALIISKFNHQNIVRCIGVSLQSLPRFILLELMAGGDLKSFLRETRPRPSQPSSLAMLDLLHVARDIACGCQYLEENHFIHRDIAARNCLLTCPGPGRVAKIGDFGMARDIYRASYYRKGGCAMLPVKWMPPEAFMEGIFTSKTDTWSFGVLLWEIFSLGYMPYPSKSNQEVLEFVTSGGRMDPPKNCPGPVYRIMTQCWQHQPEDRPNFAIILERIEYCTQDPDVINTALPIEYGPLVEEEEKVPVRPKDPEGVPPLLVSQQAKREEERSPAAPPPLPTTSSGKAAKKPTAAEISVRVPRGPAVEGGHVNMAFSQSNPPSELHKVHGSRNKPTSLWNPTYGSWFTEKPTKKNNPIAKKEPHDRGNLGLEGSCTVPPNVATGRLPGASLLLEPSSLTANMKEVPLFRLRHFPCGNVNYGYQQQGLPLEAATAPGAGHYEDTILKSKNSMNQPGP
T1 sequence (Q14432 whole entry): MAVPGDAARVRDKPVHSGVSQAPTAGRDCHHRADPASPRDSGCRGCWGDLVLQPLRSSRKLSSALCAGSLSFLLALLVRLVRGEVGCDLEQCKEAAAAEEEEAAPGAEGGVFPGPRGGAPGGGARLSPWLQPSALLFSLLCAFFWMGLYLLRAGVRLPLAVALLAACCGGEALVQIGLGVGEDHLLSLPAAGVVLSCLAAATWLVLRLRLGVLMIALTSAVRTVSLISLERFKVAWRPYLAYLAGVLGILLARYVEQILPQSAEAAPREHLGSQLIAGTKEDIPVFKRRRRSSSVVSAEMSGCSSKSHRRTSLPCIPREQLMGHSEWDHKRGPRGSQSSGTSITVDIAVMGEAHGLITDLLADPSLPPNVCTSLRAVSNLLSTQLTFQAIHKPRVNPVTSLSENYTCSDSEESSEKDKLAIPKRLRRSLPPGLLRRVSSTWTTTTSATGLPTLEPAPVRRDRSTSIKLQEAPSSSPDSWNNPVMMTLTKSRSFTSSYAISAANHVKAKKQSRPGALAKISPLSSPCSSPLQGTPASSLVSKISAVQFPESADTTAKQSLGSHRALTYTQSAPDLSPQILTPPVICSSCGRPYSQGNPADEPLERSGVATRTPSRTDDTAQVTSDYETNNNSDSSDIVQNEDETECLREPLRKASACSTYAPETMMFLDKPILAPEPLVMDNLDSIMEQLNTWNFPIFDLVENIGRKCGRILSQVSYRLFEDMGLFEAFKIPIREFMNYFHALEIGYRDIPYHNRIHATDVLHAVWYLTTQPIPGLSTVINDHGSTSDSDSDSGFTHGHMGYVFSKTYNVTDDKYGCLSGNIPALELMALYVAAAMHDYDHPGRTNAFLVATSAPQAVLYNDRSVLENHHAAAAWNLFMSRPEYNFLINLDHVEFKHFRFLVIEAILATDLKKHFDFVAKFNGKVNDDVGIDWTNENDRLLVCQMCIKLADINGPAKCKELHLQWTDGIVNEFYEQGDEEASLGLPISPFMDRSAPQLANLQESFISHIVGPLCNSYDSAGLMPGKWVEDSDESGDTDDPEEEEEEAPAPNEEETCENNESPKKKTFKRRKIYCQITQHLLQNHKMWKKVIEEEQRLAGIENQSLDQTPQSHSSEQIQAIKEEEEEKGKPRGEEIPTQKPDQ

`C[C@]12CC=C3C=C4CC[C@@H](O)C[C@]45CC[C@]3(O5)[C@@H]1CC[C@@H]2c1ccc2ccncc2c1` [Compound A, (3S,3aR,9R,10aR,12aS,12bR)-3-(isoquinolin-7-yl)-3a-methyl-1,2,3,3a,4,7,8,9,10,11,12,12b-dodecahydro-10a,12a-epoxybenzo[4,5]cyclohepta[1,2-e]inden-9-ol]: the figures for the half-inhibitory concentration (IC50) at Phosphodiesterase PDE3 and against Adenosine Transporter were 3260 nM and 3610 nM, respectively. On Adenosine Transporter, the “nH (Hill coefficient), Adenosine Transporter” value was 1.30. The same molecule had a Ki on Adenosine Transporter (Cheng and Prusoff) of 1230 nM. Moreover, the inhibition at 1 µM at CAMK2B (1 μM, 2 replicates, read-out: average percent inhibition of CAMK2B) was above 50%; on LTK (1 μM, 2 replicates, read-out: average percent inhibition of LTK), above 50%; at ALK it was below 10%. The “percent inhibition of CAMK2B, replicates” value on CAMK2B (1 μM, single replicates) was 36% and 79%. Besides, the “inhibition of CAMK2B upon retesting” value on CAMK2B (up to 10 μM) was “not inhibited”. In addition, at LTK (up to 10 μM), the “inhibition of LTK upon retesting” value is on record as “not inhibited”. The GI50 with OCI-AML2 is 4 nM.
On to `C[C@]12CC=C3C=C4CC[C@@H](N5C[C@H](O)[C@@H](O)C5)C[C@]45CC[C@]3(O5)[C@@H]1CC[C@@H]2c1ccc2ccncc2c1` [Compound D], for which, in the assay on K562, the GI50 was above 1000 nM.
